# Laboratory results from patent US20070082942A1, “Prevention of hiv-1 infection by inhibition of rho-mediated reorganization and/or content alteration of cell membrane raft” (priority 2003, published 2007).
# Key:
# [1] = test system: replication-defective NL4-3 virus pseudotyped with HIV-1ADA envelope; assay type: cell-based; conditions: for Entry of R5-pseudotyped virus: MT2-CCR5 cells treated with 10 μM compound, 48 h, FIG. 6A, 7B
# [2] = test system: HIV-1 LTR-driven promoter; assay: LTR-driven gene expression; conditions: for Reversal of lovastatin-induced increase in LTR-driven transcription: supplementation with lovastatin
# Protocol: LTR-driven gene expression. Jurkat cells transfected with pLTR-luc (Schwartz, O. et al (1990) Gene 88:197-205), pcDNA-tat and the promoterless renilla luciferase plasmid were treated at 4 h post-transfection with inhibitors and metabolites at the indicated concentrations (see HIV-1. infections section). Relative luciferase units (RLU) were calculated as the ratio between firefly and renilla activity after 48 h.
# Rho = Rho activation assay; assay type: cell-based; conditions: FIG. 8C
# Protocol: Rho and Rac activation assay. […] At times indicated, cells were washed with ice-cold PBS and lysates prepared using Rho or Rac activation assay kits (Upstate Biotechnology). GTP-bound Rho was precipitated with RBD-agarose beads and GTP-Rac with PBD-agarose beads. Activated Rho or Rac were measured in pellets by Western blot with specific antibodies, using crude cell extracts for normalization. Densitometry was performed using NIH Image software.
# [3] = test system: gp120 with the HIV-1 receptors CD4 and CXCR4; assay: gp120-induced patching; conditions: for Restoration of patch size and gp120-CXCR4 co-localization in lovastatin-treated cells: addition to lovastatin-treated cells
# [4] = test system: replication-defective NL4-3 virus pseudotyped with VSV envelope; assay type: cell-based, vesicular stomatitis virus
# X4 (NL4-3) HIV-1 strain = assay: HIV-1 infection of PHA-activated human PBMC, p24 antigen, X4 strain; assay type: cell-based
# Protocol: (§1) Treated PBMC were incubated with NL4-3 or BaL viral stocks (1 or 10 ng p24 antigen/10^6 cells; 3 h, 37° C.). Cell-free supernatants were collected daily from cultured cells (0.5×10^6/ml) and tested for p24 antigen (Coulter).
# R5 (BaL) HIV-1 strain = assay: HIV-1 infection of PHA-activated human PBMC, p24 antigen, R5 strain; assay type: cell-based
# Protocol: as §1
# HIV-1 NL4-3 = assay: Murine SCID-hu-PBMC model of HIV-1 infection; assay type: in vivo, CB.17 SCID/SCID mice
# [5] = test system: X4-pseudotyped replication-defective HIV-1 NL4-3 variant; assay type: cell-based; conditions: 10 μM lovastatin; not shown
# [6] = test system: HIV-1-pseudotyped virus produced by HEK 293T cells; assay type: cell-based
# [7] = test system: VSV-G-pseudotyped virus produced by HEK 293T cells; assay type: cell-based, vesicular stomatitis virus
# HIV-1 = assay: Lovastatin treatment of HIV-1-infected patients; assay type: in vivo, human; conditions: Table I
# grafted human PBMC = conditions: mouse, in vivo
# MT2-CCR5 cells = assay: Cell cholesterol mass determination; conditions: lovastatin-treated MT2-CCR5 cells; FIG. 7C
# Gag = conditions: cells expressing the peptide
# Luc-Ada viral particles = assay: Production of Luc-Ada viral particles in cells expressing raft-targeted protease peptide; conditions: cells expressing the peptide; FIG. 8B as printed
# [8] = lovastatin-treated PBMC, FIG. 8A
compound,measurement,setting,value
"CC(C)=CCC/C(C)=C/CC/C(C)=C/COP(=O)(O)OP(=O)(O)O [FPP, famesylpyrophosphate]",Reversal of lovastatin-induced inhibition of HIV-1 entry,[1],not
same,Reversal of lovastatin-induced increase in LTR-driven transcription,"[2]; MT2-CCR5 cells, FIG. 7D",not
"CC(C)=CCC/C(C)=C/CC/C(C)=C/CC/C(C)=C/COP(=O)(O)OP(=O)(O)O [GGPP, geranylgeranylpyrophosphate]",Reversal of lovastatin-induced inhibition of HIV-1 entry,[1],reversed
same,Reversal of lovastatin inhibition of HIV-1-induced Rho activation,Rho; co-incubation with lovastatin,reversed
same,Reversal of lovastatin-induced increase in LTR-driven transcription,"[2]; MT2-CCR5 cells, FIG. 7D",reversed
CC(C)CCC[C@@H](C)[C@H]1CC[C@H]2[C@@H]3CC=C4C[C@@H](O)CC[C@]4(C)[C@H]3CC[C@]12C [cholesterol],Reversal of lovastatin-induced inhibition of HIV-1 entry,[1],not
same,Restoration of patch size and gp120-CXCR4 co-localization in lovastatin-treated cells,[3]; FIG. 8A,not
same,Reversal of lovastatin-induced increase in LTR-driven transcription,"[2]; MT2-CCR5 cells, FIG. 7D",not
COC(=O)[C@H](CCSC)NC(=O)c1ccc(NC[C@@H](N)CS)cc1-c1ccccc1 [farnesyl transferase inhibitor],Entry of R5-pseudotyped virus,[1],not
same,Entry of VSV-pseudotyped virus,[4],did not affect
COC(=O)[C@H](CC(C)C)NC(=O)c1ccc(NC[C@@H](N)CS)cc1-c1ccccc1 [geranylgeranyl transferase inhibitor],Entry of R5-pseudotyped virus,[1],inhibited
same,Entry of VSV-pseudotyped virus,[4],did not affect
same,HIV transcription (LTR-driven),"[2]; MT2-CCR5 cells, FIG. 7D",increased
CC[C@H](C)C(=O)O[C@H]1C[C@@H](C)C=C2C=C[C@H](C)[C@H](CC[C@@H]3C[C@@H](O)CC(=O)O3)[C@H]21 [lovastatin],HIV-1 replication (p24 antigen production),"X4 (NL4-3) HIV-1 strain; PBMC pretreated 48 h with 10 μM lovastatin, X4 (NL4-3)-infected cultures, FIG. 5A",reduced p24 antigen production
same,HIV-1 replication (p24 antigen production),"R5 (BaL) HIV-1 strain; PBMC pretreated 48 h with 10 μM lovastatin, R5 (BaL)-infected cultures, FIG. 5A",reduced p24 antigen production
same,Virus rescue by co-culture of peritoneal cells with PHA-activated human PBMC,HIV-1 NL4-3; cells from two mice with undetectable viral RNA,did not rescue virus
same,Mice with undetectable viral RNA in plasma,HIV-1 NL4-3; lovastatin i.p. 5 mg/kg every three days,4 of 10
same,Mean viral load (plasma HIV-1 RNA),"HIV-1 NL4-3; lovastatin i.p. 5 mg/kg every three days, one week post-infection, vs vehicle, FIG. 5C",significantly reduced
same,CD4+ T cell counts vs controls,HIV-1 NL4-3; one week post-infection,higher
same,Entry of R5-pseudotyped virus,[1],inhibited entry
same,Entry of X4-pseudotyped virus,[5],inhibited entry
same,HIV-1-pseudotyped viral production,[6],reduced
same,VSV-G-pseudotyped viral production,[7],not that of VSV-G-pseudotyped viruses
same,HIV-1-induced Rho activation,Rho; MT2-CCR5 cells incubated with lovastatin prior to virus exposure,inhibited
same,Serum viral RNA loads,"HIV-1; six A1 stage non-HAART patients, 40 mg/day oral, one month, sole therapy",clear reduction
same,Viral load after discontinuation of treatment,HIV-1; three months after termination of treatment,rebound
same,Number of labeled cells or labeling intensity,grafted human PBMC,No difference
same,gp120 binding to CD4,[3]; lovastatin-treated PBMC,did not affect
same,Co-localization between gp120 and CXCR4,[3]; [8],drastically reduced
same,gp120 patch size vs untreated cells,[3]; [8],smaller gp120 patches
same,HIV-1 LTR-driven promoter activity,"[2]; Jurkat cells, FIG. 6C",increased
same,Cholesteryl ester mass,MT2-CCR5 cells,drastically reduced
same,Free cholesterol levels vs untreated cells,MT2-CCR5 cells,comparable
L-mevalonate,Reversal of lovastatin effect on p24 production,"X4 (NL4-3) HIV-1 strain; co-incubation with lovastatin, X4-infected cultures",reversed
same,Reversal of lovastatin effect on p24 production,"R5 (BaL) HIV-1 strain; co-incubation with lovastatin, R5-infected cultures",reversed
same,Reversal of lovastatin-induced inhibition of HIV-1 entry,[1],reversed
same,Reversal of lovastatin-induced reduction of viral production,"[6]; co-incubation with lovastatin, FIG. 6B",reversed
same,Restoration of patch size and gp120-CXCR4 co-localization in lovastatin-treated cells,[3]; FIG. 8A,restored
same,Reversal of lovastatin-induced increase in LTR-driven promoter activity,"[2]; Jurkat cells, co-incubation with lovastatin, FIG. 6C",reversed
MGCGCSSHPEDDISYEL [SEQ. ID. NO: 21],Gag processing,Gag,severely attenuated
same,Production of Luc-Ada viral particles,Luc-Ada viral particles,severely diminished
